Measured values taken from PMC6544337, “Development of chimeric and bifunctional antagonists for CLR/RAMP receptors” (PLoS ONE, 2019).

How the values were obtained:
CLR/RAMP2 = CLR/RAMP2 (Homo sapiens, UniProt O60895+Q16602); assay: CLR/RAMP2 PathHunter β-arrestin assay, antagonist mode (ADM challenge at EC80); type: cell-based; conditions: for Emax: maximum inhibition of ADM-mediated signaling, in % of a positive control, read-out: CLR/RAMP2 Max Activity % of control (antagonistic); for IC50: inhibition of ADM-mediated signaling, CHO-K1 cells, pre-incubation with antagonist, then agonist at EC80, β-arrestin read-out
Protocol: The bioactivity of synthetic analogs was studied using cells that stably express CLR/RAMP1 (1321N1 cells) or CLR/RAMP2 (CHO-K1 cells) receptors using CLR/RAMP1 cAMP and CLR/RAMP2 arrestin assays from DiscoveRx (Fremont, Ca). In receptor-activation assays, the dose-dependent stimulatory response was studied in duplicate, at 10 different concentrations.
The CLR/RAMP2 signaling was assayed using the CLR/RAMP2 PathHunter β-Arrestin assay. In this assay, the GPCR was fused in frame with a small enzyme donor fragment ProLink (PK) and co-expressed in cells stably expressing a fusion protein of β-arrestin and an N-terminal deletion mutant of β-galactosidase (i.e., enzyme acceptor or EA). Activation of the CLR/RAMP2 stimulates binding of β-arrestin to the PK-tagged receptor and leads to an increase in enzyme activity that can be measured using chemiluminescent PathHunter Detection Reagents. PathHunter cell lines were seeded in white walled, 384-well microplates and incubated at 37C prior to testing. For agonist determination, intermediate dilution of sample stocks was performed to generate 5X sample in assay buffer, and 5 μl of 5X sample was added to cells and incubated at 37C for 90 minutes. Vehicle concentration was 1%. For antagonistic activity determination, cells were pre-incubated with antagonist followed by agonist challenge at the EC80 concentration.

CLR/RAMP1 = CLR/RAMP1 (Homo sapiens, UniProt O60894+Q16602); assay: CLR/RAMP1 cAMP assay, antagonist mode (CGRP challenge at EC80); type: cell-based; conditions: for Emax: maximum inhibition of CGRP-mediated signaling, in % of a positive control, read-out: CLR/RAMP1 Max Activity % of control (antagonistic)
Chain of CLR/RAMP1 (Q16602 23-461): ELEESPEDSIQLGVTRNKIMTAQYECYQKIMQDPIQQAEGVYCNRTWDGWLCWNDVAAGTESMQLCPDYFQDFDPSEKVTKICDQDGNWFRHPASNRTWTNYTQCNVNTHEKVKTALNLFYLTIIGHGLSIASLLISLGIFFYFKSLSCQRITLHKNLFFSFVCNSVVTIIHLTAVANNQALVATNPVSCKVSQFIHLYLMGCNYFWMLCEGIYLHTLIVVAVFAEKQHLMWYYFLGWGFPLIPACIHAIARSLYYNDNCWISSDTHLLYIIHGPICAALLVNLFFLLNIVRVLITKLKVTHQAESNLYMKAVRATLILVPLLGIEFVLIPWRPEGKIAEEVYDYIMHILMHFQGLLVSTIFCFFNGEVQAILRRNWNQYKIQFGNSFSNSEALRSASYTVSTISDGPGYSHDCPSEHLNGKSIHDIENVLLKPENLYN
Chain of CLR/RAMP1 (O60894 27-148): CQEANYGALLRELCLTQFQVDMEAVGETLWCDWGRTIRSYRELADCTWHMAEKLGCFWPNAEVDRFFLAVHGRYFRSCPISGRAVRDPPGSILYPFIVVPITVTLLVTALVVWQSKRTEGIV

Chain of CLR/RAMP2 (Q16602 23-461): as the sequence (Q16602 23-461) above
Chain of CLR/RAMP2 (O60895 43-175): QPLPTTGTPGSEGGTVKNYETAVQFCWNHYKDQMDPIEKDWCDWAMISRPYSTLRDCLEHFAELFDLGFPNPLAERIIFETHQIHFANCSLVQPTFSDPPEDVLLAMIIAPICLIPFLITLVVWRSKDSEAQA

Row | IC50 (CLR/RAMP1) | Emax (CLR/RAMP1) | IC50 (CLR/RAMP2) | SMILES | Emax (CLR/RAMP2)
1 | – | – | – | NCCCC[C@H](NC(=O)[C@@H](Cc1cc(Br)c(O)c(Br)c1)NC(=O)N1CCC(N2Cc3ccccc3NC2=O)CC1)C(=O)N1CCN(c2ccncc2)CC1 [BIBN4096, reference compound] | 0%
2 | 6600 nM | 57% | 256 nM | CC[C@H](C)[C@H](NC(=O)[C@H](CCC(N)=O)NC(=O)[C@H](Cc1c[nH]cn1)NC(=O)[C@H](C)NC(=O)[C@H](CC(C)C)NC(=O)[C@H](CCCCN)NC(=O)[C@H](CCC(N)=O)NC(=O)[C@@H](NC(=O)[C@@H](N)[C@@H](C)O)C(C)C)C(=O)N[C@@H](Cc1ccc(O)cc1)C(=O)N[C@@H](CCC(N)=O)C(=O)N[C@@H](Cc1ccccc1)C(=O)N[C@H](C(=O)N[C@@H](CC(=O)O)C(=O)N[C@@H](CCCCN)C(=O)N[C@@H](CC(=O)O)C(=O)N[C@@H](CCCCN)C(=O)N[C@@H](CC(=O)O)C(=O)N[C@@H](CC(N)=O)C(=O)N[C@H](C(=O)N[C@@H](C)C(=O)N1CCC[C@H]1C(=O)N[C@@H](CCCNC(=N)N)C(=O)N[C@@H](CO)C(=O)N[C@@H](CCCCN)C(=O)N[C@H](C(=O)N[C@@H](CO)C(=O)N1CCC[C@H]1C(=O)N[C@@H](CCC(N)=O)C(=O)NCC(=O)N[C@@H](Cc1ccc(O)cc1)C(N)=O)[C@@H](C)CC)C(C)C)[C@@H](C)O [ADM22-52, reference compound] | 105%
3 | – | – | – | CCCCCCCCCCCCCCCC(=O)N[C@H](C(=O)N[C@H](C(=O)N[C@@H](CCC(N)=O)C(=O)N[C@@H](CCCCN)C(=O)N[C@@H](CC(C)C)C(=O)N[C@@H](C)C(=O)N[C@@H](Cc1c[nH]cn1)C(=O)N[C@@H](CCC(N)=O)C(=O)N[C@H](C(=O)N[C@@H](Cc1ccc(O)cc1)C(=O)N[C@@H](CCC(N)=O)C(=O)N[C@@H](Cc1ccccc1)C(=O)N[C@H](C(=O)N[C@@H](CC(=O)O)C(=O)N[C@@H](CCCCN)C(=O)N[C@@H](CC(=O)O)C(=O)N[C@@H](CCCCN)C(=O)N[C@@H](CC(=O)O)C(=O)N[C@@H](CC(N)=O)C(=O)N[C@@H](CO)C(=O)N[C@@H](C)C(=O)N1CCC[C@H]1C(=O)N[C@H](C(=O)N[C@@H](CC(=O)O)C(=O)N1CCC[C@H]1C(=O)N[C@@H](CO)C(=O)N[C@@H](CO)C(=O)N1CCC[C@H]1C(=O)N[C@@H](Cc1c[nH]cn1)C(=O)N[C@@H](CO)C(=O)N[C@@H](Cc1ccc(O)cc1)C(N)=O)C(C)C)[C@@H](C)O)[C@@H](C)CC)C(C)C)[C@@H](C)O [Antagonist 1–1] | 100%
4 | 152 nM | 101% | 7.3 nM | CC[C@H](C)[C@H](NC(=O)[C@H](CCCCN)NC(=O)[C@H](CO)NC(=O)[C@H](CCCNC(=N)N)NC(=O)[C@@H]1CCCN1C(=O)[C@H](C)NC(=O)[C@@H](NC(=O)[C@H](CC(N)=O)NC(=O)[C@H](CC(=O)O)NC(=O)[C@H](CCCCN)NC(=O)[C@H](CC(=O)O)NC(=O)[C@@H]1CCCN1C(=O)CNC(=O)[C@H](CCSC)NC(=O)[C@H](CC(C)C)NC(=O)[C@H](CCC(N)=O)NC(=O)[C@H](Cc1c[nH]c2ccccc12)NC(=O)[C@H](CC(C)C)NC(=O)[C@H](CCCNC(=N)N)NC(=O)[C@H](Cc1c[nH]cn1)NC(=O)[C@H](C)NC(=O)[C@H](CC(C)C)NC(=O)[C@H](CCCCN)NC(=O)[C@H](CCC(N)=O)NC(=O)[C@@H](NC(=O)[C@@H](N)[C@@H](C)O)C(C)C)C(C)C)C(=O)N[C@@H](CO)C(=O)N1CCC[C@H]1C(=O)N[C@@H](CCC(N)=O)C(=O)NCC(=O)N[C@@H](Cc1ccc(O)cc1)C(N)=O [Antagonist 1–6] | 101%
